Laboratory results: patent US20140113898A1, “BISARYLSULFONE AND DIALKYLARYLSULFONE COMPOUNDS AS CALCIUM CHANNEL BLOCKERS” (Zalicus Pharmaceuticals Ltd., priority 2010, published 2014)

The molecules below were run against T1, CaV2.2 (Homo sapiens, UniProt Q00975) (assay: High-throughput CaV2.2/Kir2.3 FLIPR fluorescent assay). Details: Table 4; Fluo-4 FLIPR; closed or inactivated state not stated; read-out: FLIPR data CaV2.2.
T1 construct: expressed in transfected cells; host or cells: unnamed doxycycline-inducible cell line
Type: cell-based
Description: Cells were plated in 384-well, clear-bottom, black-walled, poly-D-lysine coated plates (Becton Dickinson, Franklin Lake, N.J.) 2 days prior to use in the FLIPR assay. 100 μL of cells (1.4×10^6 cell/mL) containing doxycyline (Sigma-Aldrich, 1.5 μg/mL; to induce channel expression) were added to each well using a Multidrop (Thermo Scientific, Waltham, Mass.) and were maintained in 5% CO2 incubator at 37° C. On the morning of the assay, cells were transferred to a 5% CO2 incubator at 29° C.
Cells were washed with a wash buffer containing (in mM): 118 NaCl, 18.4 HEPES, 11.7 D-glucose, 2 CaCl2, 0.5 MgSO4, 4.7 KCl, 1.2 KH2PO4, pH adjusted to 7.2 with NaOH. 4.4 μM of the fluorescent indicator dye, Fluo-4 (Invitrogen), prepared in pluronic acid (Sigma-Aldrich), was loaded into the wells and incubated for 45 minutes at 29° C. in 5% CO2. Cells were then rinsed with either a 2 mM KCl closed-state buffer (in mM: 138.5 NaCl, 10 HEPES, 10 D-glucose, 1 CaCl2, and 2 KCl, with the pH adjusted to 7.4 with NaOH) when performing the closed-state assay or 12.5 mM KCl inactivated-state buffer (in mM: 128 NaCl, 10 HEPES, 10 D-glucose, 1 CaCl2, and 12.5 mM KCl, with the pH adjusted to 7.4 with NaOH) when performing the inactivated-state assay.
Calcium entry was evoked with an addition of 130 mM KCl stimulation buffer (in mM: 10.5 NaCl, 10 HEPES, 10 D-glucose, 1 CaCl2, and 130 KCl, with the pH adjusted to 7.4 with NaOH) for both the closed-state or inactivated-state assay. A change in the Fluo-4 fluorescence signal was assessed using FLIPR^TETRA™ instrument (Molecular Devices, Sunnyvale, Calif.) for 3 minutes following the elevation of extracellular KCl using an illumination wavelength of 470-495 nm with emissions recorded at 515-575 nm.
Concentration-dependent response curves were obtained by comparing the fluorescence signal in the presence of compound and fitted with a logistic function (1) to obtain the concentration that inhibited 50% (IC50) of the RLU signal using OriginPro v.7.5 software (OriginLab, Northampton, Mass.).
To assess the quality of the FLIPR assays the Z-factor (2) was used to quantify the suitability of the assay conditions using the following equation: […]
Data are expressed as mean and standard deviation (SD).

T1 sequence (Q00975 whole entry): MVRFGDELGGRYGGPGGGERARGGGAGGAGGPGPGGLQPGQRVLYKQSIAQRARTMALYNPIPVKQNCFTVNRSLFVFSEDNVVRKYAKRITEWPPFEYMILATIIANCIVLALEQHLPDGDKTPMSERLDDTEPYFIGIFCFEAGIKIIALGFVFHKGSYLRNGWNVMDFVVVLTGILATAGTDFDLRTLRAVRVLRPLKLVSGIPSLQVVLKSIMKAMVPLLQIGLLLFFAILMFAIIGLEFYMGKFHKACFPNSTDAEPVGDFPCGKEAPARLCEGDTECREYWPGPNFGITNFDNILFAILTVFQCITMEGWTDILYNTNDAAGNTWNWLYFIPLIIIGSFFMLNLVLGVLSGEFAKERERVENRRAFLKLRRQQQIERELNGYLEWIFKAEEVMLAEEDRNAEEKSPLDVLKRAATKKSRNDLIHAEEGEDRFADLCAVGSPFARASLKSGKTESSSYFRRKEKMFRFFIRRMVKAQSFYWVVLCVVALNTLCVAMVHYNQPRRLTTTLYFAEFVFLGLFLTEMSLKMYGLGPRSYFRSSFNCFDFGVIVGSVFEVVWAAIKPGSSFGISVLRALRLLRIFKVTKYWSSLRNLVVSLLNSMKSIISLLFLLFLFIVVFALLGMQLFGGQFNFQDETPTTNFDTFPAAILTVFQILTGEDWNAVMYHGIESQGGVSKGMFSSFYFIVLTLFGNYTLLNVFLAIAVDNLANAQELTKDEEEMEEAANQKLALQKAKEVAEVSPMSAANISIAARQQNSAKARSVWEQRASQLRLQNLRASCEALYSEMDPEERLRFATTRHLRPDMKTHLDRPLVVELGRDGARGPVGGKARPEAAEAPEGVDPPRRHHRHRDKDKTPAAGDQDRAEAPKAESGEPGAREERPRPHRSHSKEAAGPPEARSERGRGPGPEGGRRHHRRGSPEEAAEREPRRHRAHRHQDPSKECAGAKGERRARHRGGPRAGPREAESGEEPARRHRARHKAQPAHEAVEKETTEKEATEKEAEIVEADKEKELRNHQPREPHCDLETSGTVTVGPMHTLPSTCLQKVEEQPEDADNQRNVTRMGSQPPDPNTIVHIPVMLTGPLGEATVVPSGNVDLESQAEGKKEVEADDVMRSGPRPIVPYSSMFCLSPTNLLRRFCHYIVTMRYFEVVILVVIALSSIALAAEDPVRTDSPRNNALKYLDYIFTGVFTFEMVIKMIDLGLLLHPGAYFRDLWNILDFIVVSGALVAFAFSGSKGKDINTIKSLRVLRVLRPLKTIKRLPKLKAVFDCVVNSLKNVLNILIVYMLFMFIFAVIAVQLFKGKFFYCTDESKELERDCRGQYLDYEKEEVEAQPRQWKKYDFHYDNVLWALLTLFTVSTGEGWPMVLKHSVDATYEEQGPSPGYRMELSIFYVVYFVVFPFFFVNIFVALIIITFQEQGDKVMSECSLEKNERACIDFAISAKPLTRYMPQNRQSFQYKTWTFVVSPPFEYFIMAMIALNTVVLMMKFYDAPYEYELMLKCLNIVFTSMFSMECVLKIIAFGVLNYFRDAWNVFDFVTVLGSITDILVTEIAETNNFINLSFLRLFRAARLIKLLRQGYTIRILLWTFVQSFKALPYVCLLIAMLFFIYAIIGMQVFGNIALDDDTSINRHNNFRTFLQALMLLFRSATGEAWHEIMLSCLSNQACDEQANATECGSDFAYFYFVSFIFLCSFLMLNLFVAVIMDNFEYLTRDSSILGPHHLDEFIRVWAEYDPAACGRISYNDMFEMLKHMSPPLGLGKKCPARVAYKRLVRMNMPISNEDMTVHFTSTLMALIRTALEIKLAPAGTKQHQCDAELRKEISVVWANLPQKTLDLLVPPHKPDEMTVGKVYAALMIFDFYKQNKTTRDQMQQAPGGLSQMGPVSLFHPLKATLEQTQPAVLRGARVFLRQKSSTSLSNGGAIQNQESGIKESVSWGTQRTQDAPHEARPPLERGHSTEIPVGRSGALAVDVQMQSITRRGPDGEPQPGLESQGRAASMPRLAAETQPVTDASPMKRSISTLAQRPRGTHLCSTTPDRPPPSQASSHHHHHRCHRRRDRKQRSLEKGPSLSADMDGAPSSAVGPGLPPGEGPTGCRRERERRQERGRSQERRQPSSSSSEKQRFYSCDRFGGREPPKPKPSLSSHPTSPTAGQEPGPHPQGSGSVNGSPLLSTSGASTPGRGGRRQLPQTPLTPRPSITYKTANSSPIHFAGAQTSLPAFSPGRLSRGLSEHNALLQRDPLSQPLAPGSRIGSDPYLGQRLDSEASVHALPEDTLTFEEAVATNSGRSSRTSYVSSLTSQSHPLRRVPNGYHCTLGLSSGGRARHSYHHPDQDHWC
T1 sequence (P54284 whole entry partner): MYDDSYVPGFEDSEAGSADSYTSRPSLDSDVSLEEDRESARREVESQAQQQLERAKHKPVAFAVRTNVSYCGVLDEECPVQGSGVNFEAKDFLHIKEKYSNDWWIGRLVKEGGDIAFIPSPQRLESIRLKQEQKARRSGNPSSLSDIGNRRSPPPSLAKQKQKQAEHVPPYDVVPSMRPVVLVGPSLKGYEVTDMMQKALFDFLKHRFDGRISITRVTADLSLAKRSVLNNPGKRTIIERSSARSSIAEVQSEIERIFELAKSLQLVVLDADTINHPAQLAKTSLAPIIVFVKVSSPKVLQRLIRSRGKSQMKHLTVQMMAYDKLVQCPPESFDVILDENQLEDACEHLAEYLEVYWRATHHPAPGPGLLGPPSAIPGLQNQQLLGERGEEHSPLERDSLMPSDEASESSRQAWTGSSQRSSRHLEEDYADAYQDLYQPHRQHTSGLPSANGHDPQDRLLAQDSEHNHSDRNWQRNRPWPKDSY
T1 sequence (P54289 25-946 partner limits assumed): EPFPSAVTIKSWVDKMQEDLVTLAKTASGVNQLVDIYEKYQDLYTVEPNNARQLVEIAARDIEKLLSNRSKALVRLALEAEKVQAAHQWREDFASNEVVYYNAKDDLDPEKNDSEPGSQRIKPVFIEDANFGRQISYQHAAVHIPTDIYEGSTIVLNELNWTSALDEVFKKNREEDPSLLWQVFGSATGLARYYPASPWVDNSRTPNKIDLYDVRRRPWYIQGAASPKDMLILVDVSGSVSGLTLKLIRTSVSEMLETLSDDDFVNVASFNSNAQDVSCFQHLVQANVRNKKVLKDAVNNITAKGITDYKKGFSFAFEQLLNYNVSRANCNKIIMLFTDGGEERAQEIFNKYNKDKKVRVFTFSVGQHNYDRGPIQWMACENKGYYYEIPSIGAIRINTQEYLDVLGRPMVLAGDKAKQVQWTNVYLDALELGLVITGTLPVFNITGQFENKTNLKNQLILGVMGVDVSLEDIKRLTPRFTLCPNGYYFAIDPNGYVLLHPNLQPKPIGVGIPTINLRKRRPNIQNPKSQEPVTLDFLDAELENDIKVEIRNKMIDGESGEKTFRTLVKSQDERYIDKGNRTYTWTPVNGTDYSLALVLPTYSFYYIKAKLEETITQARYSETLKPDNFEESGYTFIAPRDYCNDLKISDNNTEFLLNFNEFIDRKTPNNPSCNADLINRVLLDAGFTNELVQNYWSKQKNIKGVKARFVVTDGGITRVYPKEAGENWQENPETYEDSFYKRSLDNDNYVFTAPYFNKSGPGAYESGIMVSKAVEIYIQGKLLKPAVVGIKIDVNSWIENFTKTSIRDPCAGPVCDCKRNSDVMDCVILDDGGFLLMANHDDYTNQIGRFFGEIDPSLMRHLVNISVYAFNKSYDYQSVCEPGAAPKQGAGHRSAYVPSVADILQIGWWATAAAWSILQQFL
T1 sequence (P54289 947-1103 partner limits assumed): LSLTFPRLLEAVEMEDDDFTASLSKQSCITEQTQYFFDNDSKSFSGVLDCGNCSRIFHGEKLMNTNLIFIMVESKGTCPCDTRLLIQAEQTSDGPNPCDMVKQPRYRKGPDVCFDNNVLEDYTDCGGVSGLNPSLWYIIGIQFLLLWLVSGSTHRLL

Row | SMILES | IC50 [µM]
1 | NC1(C(=O)NCc2ccc(S(=O)(=O)c3cccc(C(F)(F)F)c3)cc2)CCOCC1 [Compound 60, 4-amino-N-(4-((3-(trifluoromethyl)phenyl)sulfonyl)benzyl)tetrahydro-2H-pyran-4-carboxamide] | 4.23
2 | O=C(NCc1cc(S(=O)(=O)c2cccc(C(F)(F)F)c2)ccn1)c1ccnc(C(F)(F)F)n1 [Compound 113, 2-(trifluoromethyl)-N-((4-((3-(trifluoromethyl)phenyl)sulfonyl)pyridin-2-yl)methyl)pyrimidine-4-carboxamide] | 1.39

Second part, the molecule after the results:

Row | IC50 [µM] | SMILES
3 | 4.74 | O=C(NCc1ccc(S(=O)(=O)c2cccc(C(F)(F)F)c2)cc1)[C@@H]1C[C@H](F)CN1 [Compound 70, (2S,4S)-4-fluoro-N-(4-((3-(trifluoromethyl)phenyl)sulfonyl)benzyl)pyrrolidine-2-carboxamide]
4 | 1.94 | CC1(C(=O)NCc2ccc(S(=O)(=O)c3cccc(C(F)(F)F)c3)cc2)CCCCN1 (stereo not drawn) [Compound 85, 2-methyl-N-(4-((3-(trifluoromethyl)phenyl)sulfonyl)benzyl)piperidine-2-carboxamide]
5 | 4.07 | CC(C)(N)C(=O)NCc1ccc(S(=O)(=O)c2cccc(C(F)(F)F)c2)cc1 [Compound 64, 2-amino-2-methyl-N-(4-((3-(trifluoromethyl)phenyl)sulfonyl)benzyl)propanamide]

Same assay, conditions: Table 5; Fluo-4 FLIPR; closed or inactivated state not stated; read-out: FLIPR data CaV2.2

Row | SMILES | IC50 [µM]
6 | Cc1c(C(=O)NCCC(C)(C)S(=O)(=O)c2cccc(C(F)(F)F)c2)sc2nc[nH]c(=O)c12 [Compound 210, 5-methyl-N-(3-methyl-3-((3-(trifluoromethyl)phenyl)sulfonyl)butyl)-4-oxo-3,4-dihydrothieno[2,3-d]pyrimidine-6-carboxamide] | 3.32
7 | COc1cc(CCNC(=O)C(C)(C)S(=O)(=O)c2cccc(C(F)(F)F)c2)ccc1O [Compound 139, N-(4-hydroxy-3-methoxyphenethyl)-2-methyl-2-((3-(trifluoromethyl)phenyl)sulfonyl)propanamide] | 1.22
8 | CO[C@H]1CN[C@@H](C(=O)NCCC(C)(C)S(=O)(=O)c2cccc(C(F)(F)F)c2)C1 [Compound 199, (2R,4R)-4-methoxy-N-(3-methyl-3-((3-(trifluoromethyl)phenyl)sulfonyl)butyl)pyrrolidine-2-carboxamide] | 3.31
9 | CC(C)(CCNC(=O)[C@@H]1C[C@@H](F)CN1)S(=O)(=O)c1cccc(C(F)(F)F)c1 [Compound 216, (2S,4R)-4-fluoro-N-(3-methyl-3-((3-(trifluoromethyl)phenyl)sulfonyl)butyl)pyrrolidine-2-carboxamide] | 8.93
10 | CC(C)(CCNC(=O)C1(N)CCC1)S(=O)(=O)c1cccc(C(F)(F)F)c1 [Compound 203, 1-amino-N-(3-methyl-3-((3-(trifluoromethyl)phenyl)sulfonyl)butyl)cyclobutanecarboxamide] | 5.85
11 | CC(C)(CCNC(=O)[C@@H]1CCCCN1)S(=O)(=O)c1cccc(C(F)(F)F)c1 [Compound 196, (S)-N-(3-methyl-3-((3-(trifluoromethyl)phenyl)sulfonyl)butyl)piperidine-2-carboxamide] | 3.51
12 | CC(C)(CNC(=O)c1ccc(F)cc1)S(=O)(=O)c1cccc(C(F)(F)F)c1 [Compound 157, 4-fluoro-N-(2-methyl-2-((3-(trifluoromethyl)phenyl)sulfonyl)propyl)benzamide] | 5.37

Other lines, results leading:

Row | IC50 [µM] | SMILES
13 | 10 | CC(C)(CCNC(=O)C1(N)CC1)S(=O)(=O)c1cccc(C(F)(F)F)c1 [Compound 202, 1-amino-N-(3-methyl-3-((3-(trifluoromethyl)phenyl)sulfonyl)butyl)cyclopropanecarboxamide]
14 | 1.36 | CC(C)(CCNC(=O)c1ccc(S(C)(=O)=O)cc1Cl)S(=O)(=O)c1cccc(C(F)(F)F)c1 [Compound 189, 2-chloro-N-(3-methyl-3-((3-(trifluoromethyl)phenyl)sulfonyl)butyl)-4-(methylsulfonyl)benzamide]
15 | 3.11 | CC(C)(CCNC(=O)[C@H]1CCCCN1)S(=O)(=O)c1cccc(C(F)(F)F)c1 [Compound 195, (R)-N-(3-methyl-3-((3-(trifluoromethyl)phenyl)sulfonyl)butyl)piperidine-2-carboxamide]
